Data set [1] deals with T. b. rhodesiense (STIB 900) bloodstream forms. The data set can be described thus: Activity against Trypanosoma brucei rhodesiense bloodstream forms (resazurin). As to conditions: for T. b. rhodesiense SI (selectivity index): IC50 in L6 cells divided by IC50 in T. b. rhodesiense; for IC50: read-out: T. b. rhodesiense IC50; for activity against T. b. rhodesiense (in words): STIB 900. Format: cell-based. As to the method: The stock was originally isolated from a patient and adapted to axenic culture conditions after several mouse passages and cloned. Minimum Essential Medium (50 µL) supplemented with 25 mM HEPES, 1 g/L additional glucose, 1% MEM non-essential amino acids (100×), 0.2 mM 2-mercaptoethanol, 1mM Na-pyruvate and 15% heat inactivated horse serum was added to each well of a 96-well microtiter plate. […] Then 4 × 10^3 bloodstream forms of T. b. rhodesiense STIB 900 in 50 µL were added to each well and the plate incubated at 37 °C under a 5% CO2 atmosphere for 70 h. […] Melarsoprol (Arsobal Sanofi-Aventis, received from WHO) was used as control.
Background: Resazurin is reduced to fluorescent resorufin, in cell work by metabolically active cells.

In another data set the test system is P. falciparum (NF54). Briefly: Activity against Plasmodium falciparum erythrocytic stages (3H-hypoxanthine incorporation). The following applies: for P. falciparum SI (selectivity index): IC50 in L6 cells divided by IC50 in P. falciparum. The data set is classed as cell-based.
A short description of data set [2]: In vitro cytotoxicity with L-6 cells (resazurin). The data set is classed as cell-based. As to conditions: unit inferred, the other IC50 columns are µM, read-out: L6 Cells (cytotoxicity IC50). The protocol:
Assays were performed in 96-well microtiter plates, each well containing 100 μL of RPMI 1640 medium supplemented with 1% L-glutamine (200 mM) and 10% fetal bovine serum, and 4000 L-6 cells (a primary cell line derived from rat skeletal myoblasts). […] 10 μL of resazurin was then added to each well and the plates incubated for another 2 h. […] Podophyllotoxin (Sigma P4405) was used as control.

The test system of data set [3] is L. donovani intracellular amastigotes in mouse peritoneal macrophages. The data set can be described thus: Activity against Leishmania donovani intramacrophage amastigotes. The data set is classed as cell-based. As to conditions: tested up to 30 μM. As to the method:
Mouse peritoneal macrophages (4 × 10^4 in 100 µL RPMI 1640 medium with 10% heat-inactivated FBS) were seeded into wells of a 96-well plate. After 24 h, 100 µL of 2 × 10^5 amastigote Leishmania donovani were added. The amastigotes were taken from an axenic amastigote culture grown at pH 5.4. The medium containing free amastigote forms was removed after 24 h and replaced with fresh medium. The washing step was repeated and afterwards the serial drug dilution was prepared with at least 6 dilution steps. Compound was dissolved in DMSO at 10 mg/mL and further diluted in medium. After incubation for 96 h at 37 °C under a 5% CO2 atmosphere, the medium was removed and cells were fixed by adding 50 µL 4% formaldehyde solution followed by a staining with a 5 µM DRAQ5 solution. Plates were imaged in ImageXpress XLS (MD) microscope using a 20× air objective (635 nm excitation: 690/50 emission). Nine images were collected per well. Automated image analysis was performed with a script developed on Meta Xpress Software (MD). Three outputs were provided for each well: (i) number of host cell nuclei; (ii) numbers of infected and non-infected host cells; (iii) number of parasite nuclei per infected host cell. The IC50 values were calculated based on the infection rate and the numbers of intracellular amastigotes. Miltefosine was used as control.

The test system of data set [4] is L. donovani promastigote form. The arrangement: method as in PMID 18688887. The following applies: cited from earlier work.
For another data set, the system named is P. falciparum. As to conditions: cited from earlier work.
A further data set deals with trypanosomes. The following applies: cited from earlier work.
The mark [5] stands for this setting: Trypanosoma brucei, STIB 900 bloodstream forms, mean of at least two independent replicates ± absolute deviation.
The mark [6] stands for this setting: Plasmodium falciparum, NF54, NF54, mean of at least two independent replicates ± absolute deviation, read-out: P. falciparum IC50.
Where [7] appears, read: NF54, mean of at least two independent replicates ± absolute deviation, read-out: P. falciparum IC50.
Setting [8] is: L-6 cells (rat skeletal myoblasts).
The mark [9] stands for this setting: STIB 900 bloodstream forms, mean of at least two independent replicates ± absolute deviation.

“And” between values parts separate entries of the source, which are not always exact repeats. Equal values may be shown once. Read-outs that look alike come from different tables or passages of the source.

Regarding `COc1cc([C@H]2O[C@@H](c3ccc(O)c(OC)c3)[C@@H](C)[C@H]2C)ccc1O` [Compound 1, tetrahydrofuroguaiacin B], the “T. b. rhodesiense SI (selectivity index)” value in data set [1] is 1.6. In addition, the IC50 in data set [1] (setting [5]) is 59.4 ± 2.5 µM; with P. falciparum (NF54) (setting [6]), 53.1 ± 2 µM. For the same molecule, in the data set with P. falciparum (NF54), the “P. falciparum SI (selectivity index)” value is 1.8. Further, in data set [2] (rat skeletal myoblasts), the IC50 at 72 h worked out at 95.2 ± 9.3 µM.
Take `COc1cc([C@H]2O[C@@H](c3ccc(O)c(OC)c3)[C@H](C)[C@@H]2C)ccc1O` [Compound 2, nectandrin B]: the “T. b. rhodesiense SI (selectivity index)” value in data set [1] is recorded as 2.4. For the same molecule, the IC50 in data set [1] (setting [5]) was 48.3 ± 1.3 µM; with P. falciparum (NF54) (setting [7]), 9.5 ± 0.1 µM; in the data set with P. falciparum (NF54) (setting [6]) it was 9 to 9.5 µM; in data set [3] (Leishmania donovani, Peritoneal macrophage, read-out: activity against L. donovani in the intracellular amastigote assay) it was more than 30 µM. The “P. falciparum SI (selectivity index)” value in the data set on P. falciparum (NF54) is recorded as 12.1. Also, the IC50 at 72 h in data set [2] (rat skeletal myoblasts) was determined as 115 ± 2.6 µM. Also, the “activity against L. donovani in the intracellular amastigote assay” value in data set [3] is “not reproduced”. For the same molecule, the “activity against L. donovani promastigotes (in words)” value in data set [4] is “inactive”.
`COc1cc([C@H]2O[C@H](c3cc(OC)c(O)c(OC)c3)[C@@H](C)[C@@H]2C)cc(OC)c1O` [Compound 3, fragransin B2]: the “T. b. rhodesiense SI (selectivity index)” value in data set [1] is reported as 3.6. The IC50 was 47.5 ± 4.5 µM in data set [1] (setting [5]) and 36.1 ± 1 µM with P. falciparum (NF54) (setting [6]). Also, the “P. falciparum SI (selectivity index)” value in the data set on P. falciparum (NF54) was 4.7.
In the case of `COc1cc([C@H]2O[C@@H](c3cc(OC)c(O)c(OC)c3)[C@@H](C)[C@@H]2C)cc(OC)c1O` [Compound 4, fragransin B1], in data set [1], the “T. b. rhodesiense SI (selectivity index)” value came out at 3.4. The IC50 turned out to be 40.7 ± 0.4 µM in data set [1] (setting [5]), 17.4 ± 2.1 µM with P. falciparum (NF54) (setting [7]) and 17 µM with P. falciparum (NF54) (setting [6]). Further, the “P. falciparum SI (selectivity index)” value in the data set with P. falciparum (NF54) turned out to be 8.0. The IC50 at 72 h in data set [2] (setting [8]) turned out to be 163 ± 4.5 µM.
Regarding `COc1cc(CCC(=O)NCCc2ccc(O)cc2)ccc1O` [Compound 5, dihydro-feruloyltyramine], the “activity against T. b. rhodesiense (in words)” value in data set [1] is “least active”. The IC50 in data set [1] (setting [5]) amounted to 206 ± 66.7 µM; in the data set with P. falciparum (NF54) (setting [6]), 159 µM. Further, in the data set with P. falciparum (NF54) (NF54), the “activity against P. falciparum (in words)” value is “least active”. Moreover, in data set [2] (setting [8]), the IC50 at 72 h is more than 318 µM.
Consider `COc1cc(/C=C/C(=O)NCCc2ccc(O)cc2)ccc1O` [Compound 6, (E)-N-feruloyltyramine], for which, in data set [1], the “T. b. rhodesiense SI (selectivity index)” value was 2.0 and the “activity against T. b. rhodesiense (in words)” value is “least active”. Besides, in data set [1] (setting [5]), the IC50 was determined as 121 ± 36.9 µM. Besides, the “P. falciparum SI (selectivity index)” value with P. falciparum (NF54) is listed as 3.6. Also, the IC50 in the data set with P. falciparum (NF54) (setting [6]) was determined as 68.4 ± 3.8 µM. For the same molecule, the IC50 at 72 h in data set [2] (rat skeletal myoblasts) is 247 ± 3.7 µM.
For the molecule `COc1cc(C(=O)/C(C)=C(/C)C(=O)c2ccc(O)c(OC)c2)ccc1O` [Compound 7, furoguaiaoxidin], the IC50 in data set [1] (setting [5]) worked out at 114 µM; in the data set with P. falciparum (NF54) (setting [6]) it was 48.1 ± 10.9 µM. Moreover, in data set [2] (setting [8]), the IC50 at 72 h is more than 281 µM.
`COc1cc(/C=C/C(=O)NCCCCNC(=O)/C=C/c2ccc(O)c(OC)c2)ccc1O` [Compound 8, N,N′-diferuloylputrescine]: the “T. b. rhodesiense SI (selectivity index)” value in data set [1] is 8 and 7.8. Also, the IC50 in data set [1] (setting [9]) was 18.9 ± 8.4 µM; in data set [1] (setting [5]), 19 µM; with P. falciparum (NF54) (setting [6]), 30.6 ± 8.3 µM. Further, the “P. falciparum SI (selectivity index)” value in the data set on P. falciparum (NF54) is 4.8. For the same molecule, the IC50 at 72 h in data set [2] (setting [8]) worked out at 146 ± 18.8 µM.
As for `CCOC(CNC(=O)/C=C/c1ccc(O)c(OC)c1)c1ccc(O)cc1` (centres unmarked) [Compound 9, 7′-ethoxy-feruloyltyramine], the “T. b. rhodesiense SI (selectivity index)” value in data set [1] was 2.9. The figures for the IC50 (in data set [1] (setting [5]); with P. falciparum (NF54) (setting [6])) were 72.7 ± 30.4 µM and 30.4 ± 8 µM, respectively. In the data set on P. falciparum (NF54), the “P. falciparum SI (selectivity index)” value was determined as 6.8. Also, in data set [2] (setting [8]), the IC50 at 72 h came out at 208 ± 21.6 µM.
Take `COc1cc(CC(C)C(CO)Cc2ccc(O)c(OC)c2)ccc1O` (centres unmarked) [Compound 10, 3,3′-dimethoxy-4,4′-dihydroxylignan-9-ol]: the “T. b. rhodesiense SI (selectivity index)” value in data set [1] was 5 and 4.6. In addition, the IC50 is 27.5 ± 8.4 µM in data set [1] (setting [9]), 28 µM in data set [1] (setting [5]), 9.3 ± 1.3 µM in the data set with P. falciparum (NF54) (setting [7]) and 9 to 9.5 µM in the data set on P. falciparum (NF54) (setting [6]). Also, the “P. falciparum SI (selectivity index)” value in the data set on P. falciparum (NF54) amounted to 13.7. Moreover, in the data set on P. falciparum (NF54) (NF54), the “activity against P. falciparum (in words)” value was “selectively active”. Further, in data set [2] (setting [8]), the IC50 at 72 h is 128 ± 3.9 µM.
`COc1cc2c(OC)c3c(c(-c4ccc5c(c4)OCO5)c2cc1OC)C(=O)OC3` [Justicidin A]: the “activity against P. falciparum (in words)” value in the data set on P. falciparum is “active”.
For `COc1cc2cc3c(c(-c4ccc5c(c4)OCO5)c2cc1OC)C(=O)CO3` [Justicidin B], in the data set on trypanosomes, the “trypanocidal activity (in words)” value is recorded as “showed trypanocidal activity”.
With `CCN(CC)CCCC(C)Nc1ccnc2cc(Cl)ccc12` (centres unmarked) [chloroquine, reference compound], the IC50 in the data set on P. falciparum (NF54) (Plasmodium falciparum, NF54, read-out: P. falciparum IC50) was determined as 0.01 µM.
In the case of `Nc1nc(N)nc(Nc2ccc([As]3SCC(CO)S3)cc2)n1` (centres unmarked) [melarsoprol, reference compound], in data set [1] (Trypanosoma brucei), the IC50 is 0.01 µM.
Consider `COc1cc([C@@H]2c3cc4c(cc3[C@H](O)[C@H]3COC(=O)[C@H]23)OCO4)cc(OC)c1OC` [podophyllotoxin, reference compound], for which the IC50 at 72 h in data set [2] (rat skeletal myoblasts) came out at 0.03 µM.

Source of the values: publication PMC7355546, “Lignans, Amides, and Saponins from Haplophyllum tuberculatum and Their Antiprotozoal Activity” (Molecules, 2020).
